Source: US10428060B2, “PI-kinase inhibitors with anti-infective activity” (The Board of Trustees of the Leland Stanford Junior …, priority 2011, dated 2019)

Legend:
HCV genotype 2a = assay: microbe, parasite or virus in culture; type: cell-based; settings: Hepatitis C virus, Huh7.5, read-out: HCV2a EC50
HRV = assay: Rhinovirus antiviral assay; type: cell-based; settings: Human rhinovirus sp.
PI3K p110g = target: T1, PI3K p110g (Homo sapiens, UniProt P48736); assay: PI3K p110g kinase assay; type: biochemical
T1 construct: purchased Millipore
Experimental: (§1) In the assays described here, p110α-p85 complex and p110γ were acquired from Millipore. Assays were performed with Lα-phosphatidylinositol (Avanti) as described in Knight et al. Nat Protoc. 2007; 2 (10):2459-66. Inhibitor series were prepared 10% DMSO as 5× stocks for the assay. Assays of HsVps34 were performed as described in Knight et al, except that the final assay buffer composition used was changed to 20 mM HEPES 7.5, 100 mM NaCl, 3 mM MgCl, 1 mg/mL PI and 44 nM hvps34 was used in the assay. […] COS-7 cells were cultured in 10 cm dishes and transfected at 70% confluence with 10 μg of plasmid DNA (HA-tagged bovine PI4KIIIβ, HA-tagged human PI4KIIIα) using Lipofectamine 2000 and 5 ml Opti-MEM following the manufacturer's instructions. After 5 hours the transfection medium was replaced with 10 ml complete DMEM. 36 hrs post transfection, cells were washed once with 5 ml PBS (pH 7.4) and lysed in 1 ml of lysis buffer (1) on ice. Lysates were collected by scraping and after 15 min they were centrifuged at 13,000 rpm for 10 min. To the lysates was added 200 μl of protein G Sepharose 4 fast flow beads that were prewashed with PBS and lysis buffer and 2 μg of anti-HA antibody. The tubes were then incubated overnight at 4 degrees C. in a tube rotator. The Sepharose beads in the lysate were washed twice with 150 mM NaCl in RIPA buffer, twice with RIPA buffer and once with kinase buffer (50 mM Tris/HCl, pH 7.5, 20 mM MgCl2, 1 mM EGTA, 1 mM PtdIns, 0.4% Triton X-100, 0.5 mg/mL BSA) and finally the beads were resuspended in 200 μL kinase buffer. Kinase reactions were run in a mixture of 45 μL of PI buffer (1 mM PI in kinase buffer), 10 μL of immunoprecipitated beads, 2 µL of inhibitors (dissolved and diluted in DMSO) or DMSO and 5 μL of [γ-^32P]-ATP (1 mM and 2 μCi/tube). The immunoprecipitates in PI buffer were pre-incubated with the drugs for 20 min prior the initiation of kinase reaction by adding ATP and the reactions were carried out for 30 min in 15 ml polypropolyne tubes. Reactions were terminated by addition of 3 ml of CHCl3:CH3OH:HCl (200:100:0.75) followed by 0.6 ml of 0.6N HCl to induce phase separation. The mixtures were vortexed, centrifuged at 2000 rpm for 2 min and the upper phase was discarded. To the lower phase was added 1.5 ml of CHCl3:CH3OH:0.6N HCl (3:48:47) and the mixture vortexed and centrifuged at 2000 rpm for 2 min. The lower phase was then transferred to counting vials and evaporated. Samples were counted in a scintillation beta counter after adding 5 ml of Instafluor (Perkin-Elmer).
PI-kinase assay: Compounds are tested in C.1.1. PI kinase assays as described by Shokat et al., “A membrane capture assay for lipid kinase activity.” Nat. Protoc. 2007; 2(10):2459-66.

PI4KIIIB = target: T2, PI4KIIIB (Bos taurus, UniProt O02810); assay: PI4KIIIB kinase assay; type: biochemical, bovine
T2 construct: made in house; host or cells: COS-7 cells, transient transfection, anti-HA immunoprecipitate on protein G Sepharose beads
Experimental: as §1, with “2007; 2 (10):2459-66.” left out, “for” for “for the assay. Assays of HsVps34 were performed as described in Knight et al, except that the final assay buffer composition used was changed to 20 mM HEPES 7.5, 100 mM NaCl, 3 mM MgCl, 1 mg/mL PI and 44 nM hvps34 was used in”, “Lysates were collected by scraping and after 15 min they were centrifuged at 13,000 rpm for 10 min.” left out, “The Sepharose beads in the lysate were washed twice with 150 mM NaCl in RIPA buffer, twice with RIPA buffer and once with kinase buffer (50 mM Tris/HCl, pH 7.5, 20 mM MgCl2, 1 mM EGTA, 1 mM PtdIns, 0.4% Triton X-100, 0.5 mg/mL BSA) and finally the beads were resuspended in 200 μL kinase buffer.” left out
PI-kinase assay: Compounds are tested in C.1.1. PI kinase assays as described by Shokat et al., “A membrane capture assay for lipid kinase activity.” Nat. Protoc.

T2 sequence (O02810 whole entry): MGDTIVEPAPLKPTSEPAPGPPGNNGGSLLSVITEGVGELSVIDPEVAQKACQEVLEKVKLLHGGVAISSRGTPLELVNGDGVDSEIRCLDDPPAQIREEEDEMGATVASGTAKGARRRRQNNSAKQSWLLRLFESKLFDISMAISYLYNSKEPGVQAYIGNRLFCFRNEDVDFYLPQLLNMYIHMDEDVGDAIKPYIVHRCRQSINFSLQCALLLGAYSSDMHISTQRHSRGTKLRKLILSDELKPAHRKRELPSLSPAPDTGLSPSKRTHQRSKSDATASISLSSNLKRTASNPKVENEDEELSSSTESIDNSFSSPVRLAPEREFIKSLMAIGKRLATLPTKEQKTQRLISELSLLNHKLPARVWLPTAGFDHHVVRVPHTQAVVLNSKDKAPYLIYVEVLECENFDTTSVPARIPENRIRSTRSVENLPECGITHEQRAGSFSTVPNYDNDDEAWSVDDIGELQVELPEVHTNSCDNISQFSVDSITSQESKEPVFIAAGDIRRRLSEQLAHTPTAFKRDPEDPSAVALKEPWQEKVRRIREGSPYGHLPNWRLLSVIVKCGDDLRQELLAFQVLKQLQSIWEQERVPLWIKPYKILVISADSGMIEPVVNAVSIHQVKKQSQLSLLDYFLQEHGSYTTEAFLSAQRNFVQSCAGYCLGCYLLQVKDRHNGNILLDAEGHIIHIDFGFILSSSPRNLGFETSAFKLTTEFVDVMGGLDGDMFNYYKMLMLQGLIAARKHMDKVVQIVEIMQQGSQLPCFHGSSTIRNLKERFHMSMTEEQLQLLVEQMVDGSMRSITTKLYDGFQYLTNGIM
T1 sequence (P48736 whole entry): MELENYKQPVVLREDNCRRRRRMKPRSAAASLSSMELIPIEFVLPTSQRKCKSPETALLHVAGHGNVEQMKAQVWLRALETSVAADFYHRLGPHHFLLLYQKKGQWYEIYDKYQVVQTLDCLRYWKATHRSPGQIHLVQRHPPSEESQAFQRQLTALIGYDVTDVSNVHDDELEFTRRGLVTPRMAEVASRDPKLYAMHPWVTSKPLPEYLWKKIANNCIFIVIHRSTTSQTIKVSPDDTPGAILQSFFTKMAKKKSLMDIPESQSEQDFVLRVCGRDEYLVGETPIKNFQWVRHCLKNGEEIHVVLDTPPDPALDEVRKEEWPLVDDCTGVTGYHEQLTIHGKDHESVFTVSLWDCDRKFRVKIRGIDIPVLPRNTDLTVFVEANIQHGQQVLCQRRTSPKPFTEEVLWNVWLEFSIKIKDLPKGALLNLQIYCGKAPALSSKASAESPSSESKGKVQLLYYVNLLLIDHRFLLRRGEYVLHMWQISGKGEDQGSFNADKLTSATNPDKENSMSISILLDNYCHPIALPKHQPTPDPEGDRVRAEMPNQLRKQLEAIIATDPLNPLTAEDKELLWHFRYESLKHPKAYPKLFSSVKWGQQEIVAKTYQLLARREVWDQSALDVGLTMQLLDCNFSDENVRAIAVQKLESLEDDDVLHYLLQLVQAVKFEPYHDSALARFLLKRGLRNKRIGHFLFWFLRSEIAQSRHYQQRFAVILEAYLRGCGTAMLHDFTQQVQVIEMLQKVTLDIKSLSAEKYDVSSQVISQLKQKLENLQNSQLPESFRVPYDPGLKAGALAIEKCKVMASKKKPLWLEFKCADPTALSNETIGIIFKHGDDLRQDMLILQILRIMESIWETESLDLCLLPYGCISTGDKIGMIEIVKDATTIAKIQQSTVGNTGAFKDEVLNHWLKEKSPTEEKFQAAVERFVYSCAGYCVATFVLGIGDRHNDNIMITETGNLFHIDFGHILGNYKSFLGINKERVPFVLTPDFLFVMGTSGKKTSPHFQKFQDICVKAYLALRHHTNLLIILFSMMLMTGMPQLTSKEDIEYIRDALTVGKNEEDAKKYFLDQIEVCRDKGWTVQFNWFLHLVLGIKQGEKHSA

Compound | IC50 (PI3K p110g) [µM] | IC50 (PI4KIIIB) [µM] | further results
COc1ccc(NS(=O)(=O)c2cc(-c3sc(NC4CCCCC4)nc3C)ccc2OC)c(C)c1 [Compound S-66, 5-[2-(cyclohexylamino)-4-methyl-thiazol-5-yl]-2-methoxy-N-(4-methoxy-2-methyl-phenyl)benzenesulfonamide; 2,2,2-trifluoroacetic acid] |  |  | EC50 (HCV genotype 2a): 1 to 10 µM; EC50 (HRV): < 0.001 µM
COc1ccc(NS(=O)(=O)c2cc(-c3sc(NC(=O)CC4CCCCC4)nc3C)ccc2OC)c(C)c1 [Compound S-85, 2-cyclohexyl-N-[5-[4-methoxy-3-[(4-methoxy-2-methyl-phenyl)sulfamoyl]phenyl]-4-methyl-thiazol-2-yl]acetamide] |  |  | EC50 (HRV): < 0.001 µM
COc1ccc(NS(=O)(=O)c2cc(-c3sc(NC4CCCCCC4)nc3C)ccc2OC)c(C)c1 [Compound S-89, 5-[2-(cycloheptylamino)-4-methyl-thiazol-5-yl]-2-methoxy-N-(4-methoxy-2-methyl-phenyl)benzenesulfonamide; 2,2,2-trifluoroactic acid] |  |  | EC50 (HRV): < 0.001 µM
COc1ccc(-c2sc(NC(=O)CC3CCCC3)nc2C)cc1S(=O)(=O)Nc1ccc(C)nc1 [Compound S-100, 2-cyclopentyl-N-[5-[4-methoxy-3-[(6-methyl-3-pyridyl)sulfamoyl]phenyl]-4-methyl-thiazol-2-yl]acetamide; 2,2,2-trifluoroacetic acid] | > 10 |  | 
COc1ccc(-c2sc(NC3CCCCC3)nc2C)cc1S(=O)(=O)Nc1ccc(O)cc1C [Compound S-106, 5-[2-(cyclohexylamino)-4-methyl-thiazol-5-yl]-N-(4-hydroxy-2-methyl-phenyl)-2-methoxy-benzenesulfonamide] |  |  | EC50 (HRV): < 0.001 µM
COc1ccc(-c2sc(NCC3CCCCC3)nc2C)cc1S(=O)(=O)NC1CC1 [Compound S-127, 5-[2-(cyclohexylmethylamino)-4-methyl-thiazol-5-yl]-N-cyclopropyl-2-methoxy-benzenesulfonamide] | > 10 |  | 
COc1ccc(-c2sc(NCC3CCCCC3)nc2C)cc1S(=O)(=O)NCC1CCCCC1 [Compound S-128, N-(cyclohexylmethyl)-5-[2-(cyclohexylmethylamino)-4-methyl-thiazol-5-yl]-2-methoxy-benzenesulfonamide] | > 10 |  | 
COc1ccc(-c2sc(NC3CCCCC3)nc2C)cc1S(=O)(=O)NC1CCCC1 [Compound S-129, 5-[2-(cyclohexylamino)-4-methyl-thiazol-5-yl]-N-cyclopentyl-2-methoxy-benzenesulfonamide] | > 10 |  | 
COc1ccc(-c2sc(N[C@H](C)CC3CCCCC3)nc2C)cc1S(=O)(=O)NC1CCNCC1 [Compound S-145, 5-[2-[[(1R)-2-cyclohexyl-1-methyl-ethyl]amino]-4-methyl-thiazol-5-yl]-2-methoxy-N-(4-piperidyl)benzenesulfonamide] | > 10 |  | 
COc1ccc(-c2sc(N[C@H](C)C3CCCCC3)nc2C)cc1S(=O)(=O)NC1CCNCC1 [Compound S-147, 5-[2-[[(1R)-1-cyclohexylethyl]amino]-4-methyl-thiazol-5-yl]-2-methoxy-N-(4-piperidyl)benzenesulfonamide] | > 10 |  | 
COc1ccc(-c2sc(NC(=O)CCC3CCCC3)nc2C)cc1S(=O)(=O)NC1CCC(O)CC1 (centres unmarked) [Compound S-156, 3-cyclopentyl-N-[5-[3-[(4-hydroxycyclohexyl)sulfamoyl]-4-methoxy-phenyl]-4-methyl-thiazol-2-yl]propanamide] |  | < 0.1 | 
COc1ccc(-c2sc(NC(=O)CC3CCOCC3)nc2C)cc1S(=O)(=O)Nc1cc(C)cc(O)c1 [Compound S-169, N-[5-[3-[(3-hydroxy-5-methyl-phenyl)sulfamoyl]-4-methoxy-phenyl]-4-methyl-thiazol-2-yl]-2-tetrahydropyran-4-yl-acetamide] | > 10 |  | 
COc1ccc(-c2sc(NC(=O)CC3CCOCC3)nc2C)cc1S(=O)(=O)Nc1ccc(F)cc1 [Compound S-170, N-[5-[3-[(4-fluorophenyl)sulfamoyl]-4-methoxy-phenyl]-4-methyl-thiazol-2-yl]-2-tetrahydropyran-4-yl-acetamide] | > 10 |  | 
COc1ccc(-c2sc(NC(=O)CC3CCCC3)nc2C)cc1S(=O)(=O)NC1CCCNC1 (centres unmarked) [Compound S-173, 2-cyclopentyl-N-[5-[4-methoxy-3-(3-piperidylsulfamoyl)phenyl]-4-methyl-thiazol-2-yl]acetamide; 2,2,2-trifluoroacetic acid] |  | < 0.1 | 
Cc1ccc(-c2sc(NC(=O)CC3CCCC3)nc2C)cc1S(=O)(=O)NC1CCCNC1 (centres unmarked) [Compound S-189, 2-cyclopentyl-N-[4-methyl-5-[4-methyl-3-(3-piperidylsulfamoyl)phenyl]thiazol-2-yl]acetamide] |  | < 0.1 | 
COc1ccc(-c2sc(NCC3CCCCC3)nc2C)cc1S(=O)(=O)NC1CCCC(O)C1 (centres unmarked) [Compound S-199, 5-[2-(cyclohexylmethylamino)-4-methyl-thiazol-5-yl]-N-(3-hydroxycyclohexyl)-2-methoxy-benzenesulfonamide] |  | < 0.1 | 
COc1ccc(-c2sc(NC(C)(C)C)nc2C)cc1S(=O)(=O)NC1CCCC(O)C1 (centres unmarked) [Compound S-218, 5-[2-(tert-butylamino)-4-methyl-thiazol-5-yl]-N-(3-hydroxycyclohexyl)-2-methoxy-benzenesulfonamide] |  | < 0.1 | 
COc1ccc(-c2sc(NC(C)(C)C)nc2C)cc1S(=O)(=O)NC1CCCNC1 (centres unmarked) [Compound S-220, 5-[2-(tert-butylamino)-4-methyl-thiazol-5-yl]-2-methoxy-N-(3-piperidyl)benzenesulfonamide] |  | < 0.1 | 
COc1ccc(-c2sc(NCC(C)C)nc2C)cc1S(=O)(=O)NC1CCCC(O)C1 (centres unmarked) [Compound S-223, N-(3-hydroxycyclohexyl)-5-[2-(isobutylamino)-4-methyl-thiazol-5-yl]-2-methoxy-benzenesulfonamide; 2,2,2-trifluoroacetic acid] |  | < 0.1 | 
COc1ncc(-c2sc(NC(=O)CC3CCOCC3)nc2C)cc1S(=O)(=O)Nc1cccc(O)c1 [Compound S-259] | 1 to 10 |  | 
COc1ncc(-c2sc(NC(=O)CC3CCOCC3)nc2C)cc1S(=O)(=O)Nc1ccc(F)cc1F [Compound S-260] | > 10 |  | EC50 (HCV genotype 2a): 0.1 to 1 µM; EC50 (HRV): 1 to 10 µM
COc1ncc(-c2sc(NC(=O)CC3CCOCC3)nc2C)cc1S(=O)(=O)N[C@H]1CC[C@@H](O)CC1 [Compound S-262] | 1 to 10 |  | 
COc1ncc(-c2sc(NC(=O)CC3CCOCC3)nc2C)cc1S(=O)(=O)Nc1cccc(C(=O)O)c1 [Compound S-265] | > 10 |  | 
